Test results as given in patent US7058616B1, “Method and system for predicting resistance of a disease to a therapeutic agent using a neural network” (Virco Bvba, priority 2000, dated 2006).

System: HIV-1
Test: MT-4 cell viral cytopathic effect protection assay, phenotypic susceptibility of patient recombinant virus
Type: cell-based
Method: Phenotypic susceptibility was determined using a MT-4 cell viral cytopathic effect protection assay. See, e.g., Kashiwase et al., Chemotherapy 45(1):48–55 (1999), expressly incorporated herein by reference; Larder et al., Antimicrob. Agents Chemother. 43(8):1961–1967 (1999).

[1] = Table 13/14 sample 1: 10I,71V,73S,84V,90M, 63P,85V,93L
[2] = Table 13/14 sample 7: 71V,73S,90M, 20I,63P

SMILES: Nc1ccn([C@H]2CC[C@@H](CO)O2)c(=O)n1 [DDC]
- actual phenotype resistance level (Table 3 testing sample 1): S/S (A fold resistance of less than or equal to 4 is considered to be “sensitive,”)
- actual phenotype resistance level (Table 3 testing sample 2): S/S (A fold resistance of less than or equal to 4 is considered to be “sensitive,”)
- actual phenotype resistance level (Table 3 testing sample 3): S/S (A fold resistance of less than or equal to 4 is considered to be “sensitive,”)
- actual phenotype resistance level (Table 3 testing sample 4): S/S (A fold resistance of less than or equal to 4 is considered to be “sensitive,”)
- actual phenotype resistance level (Table 3 testing sample 5): S/S (A fold resistance of less than or equal to 4 is considered to be “sensitive,”)
- actual phenotype resistance level (Table 3 testing sample 6): I (greater than 4 and less than 10 is considered to be “intermediate,”)
- actual phenotype resistance level (Table 3 testing sample 7): S/S (A fold resistance of less than or equal to 4 is considered to be “sensitive,”)
- actual phenotype resistance level (Table 3 testing sample 8): S (A fold resistance of less than or equal to 4 is considered to be “sensitive,”)
- actual phenotype resistance level (Table 3 testing sample 9): S/S (A fold resistance of less than or equal to 4 is considered to be “sensitive,”)
- actual phenotype resistance level (Table 3 testing sample 10): S/S (A fold resistance of less than or equal to 4 is considered to be “sensitive,”)

SMILES: CC(C)(C)NC(=O)[C@@H]1C[C@@H]2CCCC[C@@H]2CN1C[C@@H](O)[C@H](Cc1ccccc1)NC(=O)[C@H](CC(N)=O)NC(=O)c1ccc2ccccc2n1 [Saquinavir]
- actual phenotype [1]: R (if the value is greater than 10, it is considered to be ‘resistant’)
- actual phenotype (Table 13/14 sample 9: 10I,46L,54V,71V,82A,90M, 63P,93L): S (A fold resistance of less than or equal to 4 is considered to be ‘sensitive’)
- actual phenotype (Table 13/14 sample 11: 10I,46L,54V,71V,77I,82A,90M, 55R,58E,63P,93L): R (if the value is greater than 10, it is considered to be ‘resistant’)
- actual phenotype (Table 13/14 sample 19: 54V,71V,82A, 63P,93L): I (greater than 4 and less than 10 is considered to be ‘intermediate’)

SMILES: Nc1nc(NC2CC2)c2ncn([C@H]3C=C[C@@H](CO)C3)c2n1 [1592 U89]
- actual phenotype resistance level (Table 3 testing sample 1): S/S (A fold resistance of less than or equal to 4 is considered to be “sensitive,”)
- actual phenotype resistance level (Table 3 testing sample 2): S (A fold resistance of less than or equal to 4 is considered to be “sensitive,”)
- actual phenotype resistance level (Table 3 testing sample 3): S/S (A fold resistance of less than or equal to 4 is considered to be “sensitive,”)
- actual phenotype resistance level (Table 3 testing sample 4): S/S (A fold resistance of less than or equal to 4 is considered to be “sensitive,”)
- actual phenotype resistance level (Table 3 testing sample 5): S/S (A fold resistance of less than or equal to 4 is considered to be “sensitive,”)
- actual phenotype resistance level (Table 3 testing sample 6): I (greater than 4 and less than 10 is considered to be “intermediate,”)
- actual phenotype resistance level (Table 3 testing sample 7): S/S (A fold resistance of less than or equal to 4 is considered to be “sensitive,”)
- actual phenotype resistance level (Table 3 testing sample 8): I (greater than 4 and less than 10 is considered to be “intermediate,”)
- actual phenotype resistance level (Table 3 testing sample 9): S/S (A fold resistance of less than or equal to 4 is considered to be “sensitive,”)
- actual phenotype resistance level (Table 3 testing sample 10): S/S (A fold resistance of less than or equal to 4 is considered to be “sensitive,”)

SMILES: CC(C)c1nc(CN(C)C(=O)N[C@H](C(=O)N[C@@H](Cc2ccccc2)C[C@H](O)[C@H](Cc2ccccc2)NC(=O)OCc2cncs2)C(C)C)cs1 [Ritonavir]
- actual phenotype (Table 13/14 sample 2: 10I,46I,48V,77I,82A,90M, 10E,58E,63T): S (A fold resistance of less than or equal to 4 is considered to be ‘sensitive’)
- actual phenotype (Table 13/14 sample 6: 10I,48V,54V,82A, 13V): R (if the value is greater than 10, it is considered to be ‘resistant’)
- actual phenotype [2]: I (greater than 4 and less than 10 is considered to be ‘intermediate’)
- actual phenotype (Table 13/14 sample 14: 10I,46I,71T,77I,90M, 57K,63P,93L): S (A fold resistance of less than or equal to 4 is considered to be ‘sensitive’)
- actual phenotype (Table 13/14 sample 17: 46I,77I,90M, 10F,20L,63P): I (greater than 4 and less than 10 is considered to be ‘intermediate’)

SMILES: Cc1c(O)cccc1C(=O)N[C@@H](CSc1ccccc1)[C@H](O)CN1C[C@H]2CCCC[C@H]2C[C@H]1C(=O)NC(C)(C)C [Nelfinavir]
- actual phenotype resistance level (PI test sample 2): R/R (if the value is greater than 10, it is considered to be ‘resistant’)
- actual phenotype resistance level (PI test sample 3): R/R (if the value is greater than 10, it is considered to be ‘resistant’)
- actual phenotype resistance level (PI test sample 4): R/R (if the value is greater than 10, it is considered to be ‘resistant’)
- actual phenotype resistance level (PI test sample 5): R/R (if the value is greater than 10, it is considered to be ‘resistant’)
- actual phenotype resistance level (PI test sample 7): R/R (if the value is greater than 10, it is considered to be ‘resistant’)
- actual phenotype resistance level (PI test sample 8): R/R (if the value is greater than 10, it is considered to be ‘resistant’)
- actual phenotype resistance level (PI test sample 9): R/R (if the value is greater than 10, it is considered to be ‘resistant’)
- actual phenotype resistance level (PI test sample 10): R (if the value is greater than 10, it is considered to be ‘resistant’)
- actual phenotype resistance level (PI test sample 11): I/I (greater than 4 and less than 10 is considered to be ‘intermediate’)
- actual phenotype resistance level (PI test sample 13): R/R (if the value is greater than 10, it is considered to be ‘resistant’)
- actual phenotype resistance level (PI test sample 14): R/R (if the value is greater than 10, it is considered to be ‘resistant’)
- actual phenotype resistance level (PI test sample 15): R/R (if the value is greater than 10, it is considered to be ‘resistant’)
- actual phenotype resistance level (PI test sample 16): R/R (if the value is greater than 10, it is considered to be ‘resistant’)
- actual phenotype resistance level (PI test sample 17): R/R (if the value is greater than 10, it is considered to be ‘resistant’)
- actual phenotype resistance level (PI test sample 18): R/R (if the value is greater than 10, it is considered to be ‘resistant’)
- actual phenotype resistance level (PI test sample 19): R (if the value is greater than 10, it is considered to be ‘resistant’)
- actual phenotype resistance level (PI test sample 19, listed as NFV): R/R (if the value is greater than 10, it is considered to be ‘resistant’)
- actual phenotype resistance level (PI test sample 20): R/R (if the value is greater than 10, it is considered to be ‘resistant’)
- actual phenotype resistance level (PI test sample 21): R/R (if the value is greater than 10, it is considered to be ‘resistant’)
- actual phenotype resistance level (PI test sample 22): R (if the value is greater than 10, it is considered to be ‘resistant’)
- actual phenotype resistance level (PI test sample 23): R/R (if the value is greater than 10, it is considered to be ‘resistant’)
- actual phenotype resistance level (PI test sample 24): R/R (if the value is greater than 10, it is considered to be ‘resistant’)
- actual phenotype resistance level (PI test sample 25): R/R (if the value is greater than 10, it is considered to be ‘resistant’)
- actual phenotype resistance level (PI test sample 26): R/R (if the value is greater than 10, it is considered to be ‘resistant’)
- actual phenotype resistance level (PI test sample 32): R/R (if the value is greater than 10, it is considered to be ‘resistant’)
- actual phenotype resistance level (PI test sample 33): R/R (if the value is greater than 10, it is considered to be ‘resistant’)
- actual phenotype resistance level (PI test sample 34): R/R (if the value is greater than 10, it is considered to be ‘resistant’)
- actual phenotype resistance level (PI test sample 35): R/R (if the value is greater than 10, it is considered to be ‘resistant’)
- actual phenotype resistance level (PI test sample 36): R/R (if the value is greater than 10, it is considered to be ‘resistant’)
- actual phenotype resistance level (PI test sample 37): R/R (if the value is greater than 10, it is considered to be ‘resistant’)
- actual phenotype resistance level (PI test sample 38): R/R (if the value is greater than 10, it is considered to be ‘resistant’)
- actual phenotype resistance level (PI test sample 39): R/R (if the value is greater than 10, it is considered to be ‘resistant’)
- actual phenotype resistance level (PI test sample 40): R/R (if the value is greater than 10, it is considered to be ‘resistant’)
- actual phenotype resistance level (PI test sample 41): R/R (if the value is greater than 10, it is considered to be ‘resistant’)
- actual phenotype resistance level (PI test sample 42): I/I (greater than 4 and less than 10 is considered to be ‘intermediate’)
- actual phenotype resistance level (PI test sample 44): R/R (if the value is greater than 10, it is considered to be ‘resistant’)
- actual phenotype resistance level (PI test sample 45): R/R (if the value is greater than 10, it is considered to be ‘resistant’)
- actual phenotype resistance level (Table 3 testing sample 1): S/S (A fold resistance of less than or equal to 4 is considered to be “sensitive,”)
- actual phenotype resistance level (Table 3 testing sample 4): R/R (if the value is greater than 10, it is considered to be “resistant.”)
- actual phenotype resistance level (Table 3 testing sample 5): R/R (if the value is greater than 10, it is considered to be “resistant.”)
- actual phenotype resistance level (Table 3 testing sample 6): R/R (if the value is greater than 10, it is considered to be “resistant.”)
- actual phenotype resistance level (Table 3 testing sample 7): S/S (A fold resistance of less than or equal to 4 is considered to be “sensitive,”)
- actual phenotype resistance level (Table 3 testing sample 8): R/R (if the value is greater than 10, it is considered to be “resistant.”)
- actual phenotype resistance level (Table 3 testing sample 10): R/R (if the value is greater than 10, it is considered to be “resistant.”)
- actual phenotype [1]: R (if the value is greater than 10, it is considered to be ‘resistant’)
- actual phenotype (Table 13/14 sample 3: 10I, 36V,93L): R (if the value is greater than 10, it is considered to be ‘resistant’)
- actual phenotype (Table 13/14 sample 5: 10V,30N, 13V,63P): R (if the value is greater than 10, it is considered to be ‘resistant’)
- actual phenotype [2]: R (if the value is greater than 10, it is considered to be ‘resistant’)
- actual phenotype (Table 13/14 sample 10: 46I,71V,73S,90M, 20I,63P,93L): R (if the value is greater than 10, it is considered to be ‘resistant’)
- actual phenotype (Table 13/14 sample 18: 36I,71T,90M, 63P,93L): R (if the value is greater than 10, it is considered to be ‘resistant’)
- actual phenotype (Table 13/14 sample 20: 77I,88S, 13V, 63P, 93L): R (if the value is greater than 10, it is considered to be ‘resistant’)
